Here are results for 50 compounds from patent publication US20220251084A1, “PROGRANULIN MODULATORS AND METHODS OF USING THE SAME” (ARKUDA THERAPEUTICS, priority 2019, published 2022).

The first test concerns progranulin (PGRN) secretion, BV-2 cells. In words: PGRN assay: progranulin induction cellular assay (ELISA of secreted mouse PGRN). Format: cell-based.
Conditions: not given
A digest of the protocol:
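Progranulin induction measured in BV-2 cells plated at about 80% confluence the day before, given 1 h to attach, then incubated 16 h. Secreted mouse PGRN quantified by ELISA.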
(In general: ELISA stands for enzyme-linked immunosorbent assay.)
Regarding `N#Cc1ccc2c(c1)[C@@H](c1ccc(F)cc1)N(C(=O)O[C@@H]1CN3CCC1CC3)CC2` [Compound 2036], the concentration for a half-maximal effect (EC50) (commonly the concentration giving half of the maximal effect) is > 10000 nM.

The test is the same for the next values; noted with them: Mus musculus, BV-2.
Turning to `O=C(O[C@@H]1CN2CCC1CC2)N1CCc2ccccc2[C@H]1c1ccc2[nH]c(=O)sc2c1` [Compound 2012], the EC50 was > 10000 nM.

Regarding `CS(=O)(=O)c1ccc2c(c1)CCN(C(=O)O[C@@H]1CN3CCC1CC3)[C@H]2c1ccc(F)cc1` [Compound 2025], the EC50 is > 10000 nM.

Still in this test, the particulars now being: Mus musculus, BV-2, PGRN assay, Table C; secreted mouse PGRN in cell culture medium, ELISA.
In turn, `O=C(C[C@@H]1CCCNC1)N1CCc2ccccc2[C@@H]1c1ccc(F)cc1` [Compound 2188] gave an EC50 of 3210 nM.

`CN1C2CCC1[C@H](OC(=O)N1CCc3ccccc3[C@H]1c1ccc(F)cc1)CC2` (some centres unmarked) [Compound 2017] displayed an EC50 of 722 nM.

As to `CN1CCC(COC(=O)N2CCc3ccccc3[C@@H]2c2ccc(F)cc2F)CC1` [Compound 2105], the EC50 was found to be 1070 nM. This EC50 and that of the compound before are within 1.5-fold of each other.

Turning to `O=C(O[C@@H]1CCCNC1)N1CCc2ccccc2[C@@H]1c1ccc(F)cc1` (single isomer, unassigned) [Compound 2181], the response was half-maximal at 220 nM (EC50).

Regarding `CN1CCC(COC(=O)N2CCc3ccccc3[C@H]2c2cccc(F)c2F)CC1` [Compound 2135], the EC50 is 2660 nM. This EC50 is about 12-fold higher than that of the compound before.

On to `COc1ncc(COc2ccc([C@H]3c4ccccc4CCN3C(=O)OCC34CCN(CC3)CC4)cc2)cn1` [Compound 2145], for which the half-maximal effective concentration (EC50) is 2930 nM. This EC50 and that of the compound before are within 1.5-fold of each other.

Take `CS(=O)(=O)c1ccc2c(c1)CCN(C(=O)N[C@@H]1CN3CCC1CC3)[C@@H]2c1ccc(F)cc1` [Compound 2041, 1-(4-fluorophenyl)-6-(methylsulfonyl)-N—((S)-quinuclidin-3-yl)-3,4-dihydroisoquinoline-2(1H)-carboxamide]: the EC50 is > 10000 nM.

The compound `CN1CC2COC[C@H](C1)C2OC(=O)N1CCc2ccccc2[C@@H]1c1ccc(F)cc1` (stereo partly drawn) [Compound 2144, (S)-((1R,5S,9r)-7-methyl-3-oxa-7-azabicyclo[3.3.1]nonan-9-yl) 1-(4-fluorophenyl)-3,4-dihydroisoquinoline-2(1H)-carboxylate] came in with an EC50 of 1340 nM.

The compound `O=C(C[C@H]1CCCNC1)N1CCc2ccccc2[C@@H]1c1ccc(F)cc1` [Compound 2187] came in with an EC50 of 400 nM.

On to `O=C([C@@H](O)CC12CCN(CC1)CC2)N1CCc2ccccc2[C@@H]1c1ccc(F)cc1` (single isomer, unassigned) [Compound 2153], for which the EC50 is > 10000 nM.

Take `C#CCN1CCC(OC(=O)N2CCc3ccccc3[C@@H]2c2ccc(F)cc2)CC1` [Compound 2195, 1-(prop-2-yn-1-yl)piperidin-4-yl (S)-1-(4-fluorophenyl)-3,4-dihydroisoquinoline-2(1H)-carboxylate]: the response was half-maximal at 1700 nM (EC50). This lies in the single-digit micromolar range.

For the compound `COC(=O)c1ccc2c(c1)[C@H](c1ccc(F)cc1)N(C(=O)NCC13CCN(CC1)CC3)CC2` [Compound 2117, methyl (S)-1-(4-fluorophenyl)-2-((quinuclidin-4-ylmethyl)carbamoyl)-1,2,3,4-tetrahydroisoquinoline-7-carboxylate], the EC50 was > 10000 nM.

`CNC(=O)c1ccc2c(c1)CCN(C(=O)NCC13CCN(CC1)CC3)[C@@H]2c1ccc(F)cc1` [Compound 2071] came in with an EC50 of 3720 nM.

On to `COc1ccc(COc2ccc([C@H]3c4ccccc4CCN3C(=O)OCC34CCN(CC3)CC4)cc2)cc1` [Compound 2136], for which the EC50 was > 3160 nM.

`CN1CCC(COC(=O)N2CCc3ccccc3[C@@H]2c2cc(F)c(F)c(F)c2)CC1` [Compound 2142]: the response was half-maximal at 8490 nM (EC50).

Consider `CN(CC1CCNCC1)C(=O)N1CCc2ccccc2[C@H]1c1ccc(F)cc1` [Compound 2183, 1-(4-fluorophenyl)-N-methyl-N-(piperidin-4-ylmethyl)-3,4-dihydroisoquinoline-2(1H)-carboxamide], for which the EC50 is 9600 nM. The EC50 values of the last two compounds are within 1.5-fold of each other.

For the compound `O=C(N[C@H]1CCN2CCC[C@@H]12)N1CCc2ccccc2[C@@H]1c1ccc(F)cc1` [Compound 2051], the concentration giving a half-maximal response (EC50) was > 10000 nM.

Compound `O=S(=O)(CCN1CCc2ccccc2[C@@H]1c1ccc(F)cc1)C12CCN(CC1)CC2` [Compound 2131, (S)-4-((2-(1-(4-fluorophenyl)-3,4-dihydroisoquinolin-2(1H)-yl)ethyl)sulfonyl)quinuclidine] returned an EC50 of 4190 nM.

The compound `Fc1ccc(C2c3ccccc3CCN2C(C[C@@H]2CN3CCC2CC3)C(F)(F)F)cc1` (single isomer, unassigned) [Compound 2132] had an EC50 of 3070 nM.

The compound `O=C(NCC12CCN(CC1)CC2)N1CCc2ccccc2[C@@H]1c1ccc(F)cc1` [Compound 2178] yielded an EC50 of 590 nM.

As for `CN1C2CCC1[C@@H](OC(=O)N1CCc3ccccc3[C@@H]1c1ccc(F)cc1)CC2` (some centres unmarked) [Compound 2016], the EC50 was determined as 581 nM.

`O=C(N[C@@H]1CN2CCC1CC2)C(=O)N1CCc2ccccc2[C@@H]1c1ccc(F)cc1` [Compound 2104] showed an EC50 of 1610 nM. This EC50 lies about 2.8-fold higher than the previous one.

Compound `O=C(OCC1CCNCC1)N1CCc2ccccc2[C@@H]1c1ccc(F)cc1` [Compound 2170] registered an EC50 of 1590 nM.

Consider `C#CCOc1ccc2c(c1)CCN(C(=O)N[C@@H]1CN3CCC1CC3)[C@@H]2c1ccc(F)cc1` [Compound 2064], for which the EC50 is > 10000 nM.

As to `CN1CC2CCC(C1)C2OC(=O)N1CCc2ccccc2[C@@H]1c1ccc(F)cc1` (stereo in doubt) [Compound 2094, (1S)-3-methyl-3-aza-bicyclo[3.2.1]octan-8-yl 1-(4-fluorophenyl)-3,4-dihydroisoquinoline-2(1H)-carboxylate], the EC50 came out at 7220 nM.

As to `CN1CC2OCC(OC(=O)N3CCc4ccccc4[C@@H]3c3ccc(F)cc3)C2C1` (single isomer, unassigned) [Compound 2076], the EC50 was > 10000 nM.

For the compound `CNC(=O)c1ccc2c(c1)[C@@H](c1ccc(F)cc1)N(C(=O)OCC13CCN(CC1)CC3)CC2` [Compound 2060], the EC50 was > 10000 nM.

For the compound `C#CCOc1ccc2c(c1)[C@H](c1ccc(F)cc1)N(C(=O)N[C@@H]1CN3CCC1CC3)CC2` [Compound 2115, (S)-1-(4-fluorophenyl)-7-(prop-2-yn-1-yloxy)-N—((S)-quinuclidin-3-yl)-3,4-dihydroisoquinoline-2(1H)-carboxamide], a half-maximal effect (EC50) was put at 8370 nM.

Regarding `CN1CCC(COC(=O)N2CCc3ccccc3[C@@H]2c2cccc(F)c2F)CC1` [Compound 2134], the EC50 is > 10000 nM.

The test is the same for the next values; noted with them: Mus musculus, BV-2, PGRN assay, Table D; secreted mouse PGRN in cell culture medium, ELISA.
In the case of `O=C(N[C@@H]1CNC[C@@H]1F)N1CCc2ccccc2[C@@H]1c1ccc(F)cc1` [Compound 2353], the EC50 amounted to 33.9 nM.

For the compound `CN(C(=O)N1CCc2ccccc2[C@@H]1c1ccc(F)cc1)[C@H]1CCNC1` [Compound 2248], the EC50 was 1240 nM. This EC50 lies about 37-fold higher than the previous one.

In the case of `O=C(N[C@H]1CNCCOC1)N1CCc2ccccc2[C@H]1c1ccc(F)cc1` (single isomer, unassigned) [Compound 2278], the EC50 came out at 439 nM.

With `CN1C[C@@H](NC(=O)N2CCc3ccccc3[C@@H]2c2ccc(F)cc2)C(F)(F)C1` [Compound 2293, (S)—N—((R)-4,4-difluoro-1-methylpyrrolidin-3-yl)-1-(4-fluorophenyl)-3,4-dihydroisoquinoline-2(1H)-carboxamide], the EC50 was > 10000 nM.

With `NC[C@H]1CCN(C(=O)N2CCc3ccccc3[C@@H]2c2ccc(F)cc2)C1` [Compound 2288], the EC50 came to 248 nM.

`O=C(N[C@@H]1CCNC1)N1CCc2ccccc2[C@@H]1c1ccc(F)cc1` [Compound 2223] came in with a half-maximal effective concentration (EC50) of 1580 nM.

With `O=C(NC[C@@H]1CNCCO1)N1CCc2ccccc2[C@@H]1c1ccc(F)cc1` [Compound 2209], the EC50 worked out at 730 nM.

`O=C(O[C@H]1CCNC1)N1CCc2ccccc2[C@H]1c1ccc(F)cc1` [Compound 2272] came in with an EC50 of 2030 nM.

Turning to `CN(C(=O)N1CCc2ccccc2[C@@H]1c1ccc(F)cc1)[C@@H]1CNCC1(F)F` [Compound 2296, (S)—N—((R)-4,4-difluoropyrrolidin-3-yl)-1-(4-fluorophenyl)-N-methyl-3,4-dihydroisoquinoline-2(1H)-carboxamide], it took 4020 nM to reach a half-maximal effect (EC50).

`CN1CCC(NC(=O)N2CCc3ccccc3[C@@H]2c2ccc(F)cc2)CC1` [Compound 2238, (S)-1-(4-fluorophenyl)-N-(1-methylpiperidin-4-yl)-3,4-dihydroisoquinoline-2(1H)-carboxamide] gave an EC50 of 720 nM.

Compound `O=C(O[C@H]1CNCCOC1)N1CCc2ccccc2[C@@H]1c1ccc(F)cc1` [Compound 2263] gave an EC50 of 1280 nM.

In the case of `CN(C(=O)N1CCc2ccccc2[C@@H]1c1ccc(F)cc1)[C@H]1CNCC1(F)F` [Compound 2297, (S)—N—((S)-4,4-difluoropyrrolidin-3-yl)-1-(4-fluorophenyl)-N-methyl-3,4-dihydroisoquinoline-2(1H)-carboxamide], the EC50 is > 10000 nM.

On to `O=C(O[C@@H]1CCNC1)N1CCc2ccccc2[C@H]1c1ccc(F)cc1` [Compound 2266, (R)-pyrrolidin-3-yl (R)-1-(4-fluorophenyl)-3,4-dihydroisoquinoline-2(1H)-carboxylate], for which the EC50 came to 255 nM.

As for `O=C(N[C@@H]1CNCC1(F)F)N1CCc2ccccc2[C@@H]1c1ccc(F)cc1` (stereo in doubt) [Compound 2244, (1 S)—N-(4,4-difluoropyrrolidin-3-yl)-1-(4-fluorophenyl)-3,4-dihydroisoquinoline-2(1H)-carboxamide], it took 3260 nM to reach a half-maximal effect (EC50).

On to `CN(C)[C@@H]1CCN(C(=O)N2CCc3ccccc3[C@@H]2c2ccc(F)cc2)C1` [Compound 2312], for which the half-maximal effective concentration (EC50) worked out at 987 nM.

`O=C(N1CC[C@]2(CNCCO2)C1)N1CCc2ccccc2[C@H]1c1ccc(F)cc1` (single isomer, unassigned) [Compound 2325] displayed an EC50 of 4700 nM. Against the preceding compound, the EC50 is about 4.8-fold higher.

With `O=C(N[C@H]1CNCC1(F)F)N1CCc2ccccc2[C@@H]1c1ccc(F)cc1` (stereo in doubt) [Compound 2243, (1 S)—N-(4,4-difluoropyrrolidin-3-yl)-1-(4-fluorophenyl)-3,4-dihydroisoquinoline-2(1H)-carboxamide], the EC50 was 360 nM.

The test is the same for the next values; noted with them: PGRN assay, Table C; secreted mouse PGRN in cell culture medium, ELISA.
With `CN1CCC(COC(=O)N2CCc3ccccc3[C@@H]2c2ccc(F)cc2)CC1` [Compound 2095], the EC50 amounted to 3170 nM.
